Test results from US20260294767A1, “USE OF ERGOTHIONEINE IN PROMOTING COLLAGEN GENERATION” (BLOOMAGE BIOTECHNOLOGY CORPORATION LIMITED, priority 2022, published 2026).

Legend:
[1] = system: type III collagen generation in human fibroblast (HFF); test: Type III collagen content by human collagen III ELISA in human fibroblast (HFF); format: cell-based; settings: 0.2 wt % ergothioneine, 72 hours
Procedure: Human fibroblast (HFF) in logarithmic growth phase were collected, discarding the culture medium, washing them once with PBS, adding 0.25 wt % trypsin, incubating in a cell culture incubator for 1 minute, and then terminating digestion of the culture medium. The culture medium was centrifuged at 1000 rpm for 3 minutes, and the cells were resuspended in complete DMEM medium and counted. Human fibroblast (HFF) were inoculated into 12-well plates at a density of 3×10^5 cells/ml, with 1 ml/well. After incubation in an incubator at 37° C. and 5% CO2 for 24 hours, the culture medium was removed and the cells were washed with PBS.
The cells washed in step 1 were divided into two groups, namely a blank control group and an ergothioneine group, with 3 replicates in each group. Among them, the blank control group: 1 ml of serum-free culture medium; the ergothioneine group: 1 ml of serum-free culture medium containing 0.2 wt % ergothioneine.
After thoroughly mixing, cells in the above groups were placed in an incubator and cultured for another 72 hours.
Phase contrast microscopy was used to observe cell growth, morphology, and integrity of the cell monolayer, and changes in cell morphology and growth were recorded. The content of type III collagen was determined by using the human collagen III ELISA kit.
Type III collagen promotion rate was calculated as: […]

[2] = system: type III collagen generation in primary human dermal fibroblasts; test: Type III collagen generation in primary human dermal fibroblasts, ELISA of culture supernatant; format: cell-based; settings: for Relative expression level of type III collagen: N=3, vs blank control 100.00%
Procedure: A sample solution was prepared by dissolving ergothioneine solid powder in a basic culture medium, and the concentration was adjusted to 0.001 wt %.
When the in vitro cultured fibroblasts reached 80-90% confluence, they were digested with trypsin and inoculated into 96-well plates. After 48 hours of monolayer culture in a 96-well plate, cells were treated with the ergothioneine sample prepared in step (1) (N=3), with a treatment group comprising 100 ng/mL IGF-1 was set as the positive control. After 48 hours, the cell culture supernatant was taken for ELISA assay of type III collagen, and the type III collagen content of the measured sample group was statistically compared with that of the blank control group to evaluate the effect of ergothioneine on the generation of type III collagen.
All results were presented as Mean±SD, and differences in measured data were compared using an unpaired t-test. P-value<0.05 is considered statistically significant.

| Molecule | effect on generation of type III collagen (in words) ([1]; compared with blank control) | activity at 0.2 wt % ([1]; Homo sapiens, Fibroblast, serum-free medium, 3 replicates, vs blank control 100.0 ± 12.3, ** P < 0.01, read-out: Relative expression level of type III collagen (%)) | activation at 0.2 wt % ([1]; Homo sapiens, Fibroblast, serum-free medium, 3 replicates, vs blank control, read-out: Type III collagen promotion rate (%)) | effect on generation of type III collagen (in words) ([2]; ergothioneine 0.001%, 48 hours, P<0.05) | Relative expression level of type III collagen ([2]; ergothioneine 0.001 wt %, 48 hours, SD 0.07, P 0.0360) | effect on synthesis of type III collagen in fibroblasts (in words) ([2]; 100 ng/mL IGF-1, 48 hours, P<0.05) | Relative expression level of type III collagen ([2]; positive control 100 ng/mL IGF-1, 48 hours, SD 0.05, P 0.0103) |
| --- | --- | --- | --- | --- | --- | --- | --- |
| C[N+](C)(C)[C@@H](Cc1c[nH]c(=S)[nH]1)C(=O)[O-] [Ergothioneine, ergothioneine] | can significantly promote the generation of type III collagen | 148 ± 20.1% | 48.3 ± 20.1% | significantly promotes the generation of type III collagen | 117.8% | – | – |
| IGF-1: 100 ng/mL IGF-1 was set as the positive control | – | – | – | – | – | significantly promotes the synthesis of type III collagen in fibroblasts | 129.3% |
